Assay results as given in PubChem BioAssay (NCI).
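All cell lines were grown in 96-well plates and treated with compound for 48 hours. Abbreviation: GI50, concentration required for 50% inhibition of growth. TGI: concentration producing complete growth inhibition.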

What was measured:
Test in all cases: NCI anticancer screen, dose series, 48 h
[1] = system: PC-3 prostate
[2] = system: HCT-116 colon
[3] = system: OVCAR-8 ovarian
[4] = system: HCT-15 colon
[5] = system: SK-MEL-28 melanoma
[6] = system: HS 578T breast
[7] = system: T-47D breast
[8] = system: HCC-2998 colon
[9] = system: U251 CNS
[10] = system: NCI/ADR-RES ovarian

Row | Structure (SMILES) | TGI [1] [µM] | TGI [2] [µM] | TGI [3] [µM] | TGI [4] [µM] | TGI [5] [µM] | TGI [6] [µM] | TGI [7] [µM] | TGI [8] [µM] | TGI [9] [µM] | GI50 [1] [µM] | GI50 [2] [µM] | GI50 [3] [µM] | GI50 [4] [µM] | GI50 [10] [µM] | TGI [10] [µM] | GI50 [5] [µM] | GI50 [7] [µM] | GI50 [8] [µM] | GI50 [9] [µM] | GI50 [6] [µM]
1 | C=CC1=C(C)C2=NC1=CC1=NC(=CC3=C(C)C4=C(O)C(C(=O)OC)C(=C5NC(=C2)C(C)C5CCC(=O)OC)C4=N3)C(CC)=C1C (centres undefined) | > 100 | > 100 | > 100 | > 100 | > 100 | > 100 | > 100 | > 100 | > 100 | – | – | – | – | – | – | – | – | – | – | –
2 | COC(=O)C1C(OCc2ccccc2)C2CCC1(OC)C=C2C (centres undefined) | – | > 100 | > 100 | > 100 | > 100 | – | – | > 100 | > 100 | – | – | – | – | – | – | – | – | – | – | –
3 | Cc1ccc(Oc2ccc([N+](=O)[O-])cc2[N+](=O)[O-])c(C)c1 | – | > 100 | > 100 | > 100 | > 100 | – | – | > 100 | > 100 | – | – | – | – | – | – | – | – | – | – | –
4 | O=c1c2cccnc2ncn1CCN1CCCC1 | – | > 100 | > 100 | – | > 100 | – | – | > 100 | > 100 | – | – | – | – | – | – | – | – | – | – | –
5 | O=c1c2ccccc2nc(-c2cccc(Cl)c2)n1NCC1(O)OCC(O)C(O)C1O (centres undefined) | – | > 100 | > 100 | > 100 | > 100 | – | – | – | > 100 | – | – | – | – | – | – | – | – | – | – | –
6 | COc1ccc(-c2c(N)[n+]([O-])c3ccccc3[n+]2[O-])cc1OC | – | > 100 | > 100 | > 100 | > 100 | – | – | – | > 100 | – | – | – | – | – | – | – | – | – | – | –
7 | CCC(C(=O)c1ccccc1)C(CCCC(=O)Nc1c(C)cccc1C)N=O (centres undefined) | – | > 100 | > 100 | > 100 | > 100 | – | – | > 100 | > 100 | – | – | – | – | – | – | – | – | – | – | –
8 | NC(=O)c1ccc2nc3c(n2c1)C(=O)C(=O)c1ccccc1-3 | 2.78 | 1.21 | 1.63 | 3.55 | 2.29 | – | 2.54 | 3.13 | 0.928 | 1.04 | 0.327 | 0.403 | 1.46 | 1.88 | 6.19 | 1.07 | 0.415 | 1.6 | 0.296 | –
9 | Cc1c2c(cc3c(=O)ccn(CCN(C)C)c13)c(=O)ccn2CCN(C)C | – | 19.5 | 21.8 | 24.1 | 35.5 | – | – | 20.3 | 23 | – | – | – | – | – | – | – | – | – | – | –
10 | Cn1cnc([N+](=O)[O-])c1Sc1nnnn1-c1ccccc1 | – | 23.4 | 27.9 | – | 28.6 | – | – | 32.5 | 26 | – | – | – | – | – | – | – | – | – | – | –
11 | S=c1nc(N2CCCCC2)ss1 | – | 42.4 | > 100 | 62.6 | 36.4 | – | – | 30 | 38 | – | – | – | – | – | – | – | – | – | – | –
12 | Cc1cccc(C)c1NC(=O)CCc1n[nH]c(=S)o1 | – | 36.7 | > 100 | > 100 | > 100 | – | – | > 100 | > 100 | – | – | – | – | – | – | – | – | – | – | –
13 | O=C(NCc1ccncc1)C1COc2cc(-c3cc(=O)c4ccccc4o3)ccc2O1 (centres undefined) | – | > 100 | > 100 | > 100 | > 100 | – | – | > 100 | > 100 | – | – | – | – | – | – | – | – | – | – | –
14 | NNC(=O)/C(NC(=O)c1ccccc1)=C(\N)c1ccc(Cl)cc1 | – | > 100 | > 100 | > 100 | > 100 | – | – | > 100 | > 100 | – | – | – | – | – | – | – | – | – | – | –
15 | C=C1C(=O)O[C@H]2[C@H]1CC/C(COC(=O)c1ccccc1)=C\CC[C@@]1(C)O[C@@H]21 | 4.34 | 1.82 | 9.28 | 2.3 | 3.71 | 14.8 | – | 4.95 | 3.37 | 1.8 | 0.469 | 2.28 | 0.8 | 2.67 | 9.05 | 1.74 | – | 2.35 | 1.67 | 2.56
16 | COc1cc2c(cn1)[nH]c1ccccc12 | – | > 100 | > 100 | > 100 | > 100 | – | – | > 100 | > 100 | – | – | – | – | – | – | – | – | – | – | –
17 | Clc1ccc(Nc2ccnc(NCCCNc3ccnc4cc(Cl)ccc34)n2)cc1 | 3.13 | 3.1 | 3.62 | – | 3.07 | 3.8 | – | – | 2.91 | 1.58 | 1.42 | 1.82 | – | 1.76 | 3.38 | 1.64 | – | – | 1.48 | 1.73
18 | C=CCn1cc(C(=O)NC(=O)NCCCCCOC(=O)CCCCCCCCCCC(=O)OCCCCCNC(=O)NC(=O)c2cn(CC=C)c(=O)n(C)c2=O)c(=O)n(C)c1=O | – | > 100 | > 100 | > 100 | > 100 | – | – | > 100 | > 100 | – | – | – | – | – | – | – | – | – | – | –
